Laboratory results from patent US20060142271A1, “Novel lapacho compounds and methods of use thereof” (priority 2002, published 2006).
Where two headings read alike, the source gives them in different places.

How the values were obtained:
[1] = tested on: colon cancer cell line DLD1; experiment: Cancer cell line colony survival assay, DLD1; format: cell-based, human; details: colon cancer cell line DLD1, 4 h exposure, colonies after 10-15 days, read-out: AA in Cancer Cell Lines IC50 (μM) DLD1
Protocol: (§1) HaCaT keratinocyte proliferation assay and LDH release were described previously in full detail (Muller et al. J. Med. Chem. 39: 3132-3138, 1996; Müller et al. J. Med. Chem. 37: 1660-1669, 1994). For the cancer cell line studies, exponentially growing cells were seeded at 1,000 cells per well in six-well plates and allowed to attach for 24 h. Compounds of the invention or β-lapachone, solubflized in DMSO, were added to the wells in micromolar concentrations. Control wells were treated with equivalent volumes of DMSO. After 4 h the supernatant was removed and fresh medium was added. Cultures were observed daily for 10-15 days and then were fixed and stained. Colonies of greater than 30 cells were scored as survivors.

[2] = tested on: colon cancer cell line SW480; experiment: Cancer cell line colony survival assay, SW480; format: cell-based, human; details: colon cancer cell line SW480, 4 h exposure, colonies after 10-15 days, read-out: AA in Cancer Cell Lines IC50 (μM) SW480
Protocol: as §1

[3] = tested on: breast cancer cell line MCF7; experiment: Cancer cell line colony survival assay, MCF7; format: cell-based, human; details: breast cancer cell line MCF7, 4 h exposure, colonies after 10-15 days, read-out: AA in Cancer Cell Lines IC50 (μM) MCF7
Protocol: as §1

HaCaT cells [4] = format: cell-based, human; details: for LDH (mU): human, 2 μM
Protocol: as §1
The cytotoxicity of naphthoquinones has been thought to result, at least in part, from reactive oxygen species, generated during redox cycling between the […] and reduction products (Munday, R., Free Radic. Biol. Med., 22, 689-695, 1997), which cause peroxidative damage to membrane lipids. To assess the correlation of keratinocyte growth inhibition with membrane damage, the release of lactate dehydrogenase from the treated cells was also quantitated.

HaCaT cells [5] = experiment: HaCaT keratinocyte proliferation assay (cell counting); format: cell-based, human; details: for inhibition of HaCaT cell proliferation (in words): HaCaT cells
Protocol: Anthralin, an antipsoriatic drug, was used as a positive control. Antiproliferative activity was measured directly by counting the dispersed cells under a phase-contrast microscope.
as §1, with “survivors. […]” for “survivors.”

[6] = tested on: human keratinocyte cell line HaCaT; details: Müller et al., J. Nat. Prod. 62 (1999); cited from earlier work
[7] = Homo sapiens, antiproliferative activity against HaCaT cells, N = 3, read-out: AA in HaCaT Cells IC50
[8] = antiproliferative activity against HaCaT cells, N = 3, read-out: AA in HaCaT Cells IC50

Row | SMILES | LDH (mU) (HaCaT cells [4]) | melting point | IC50 ([1]; Homo sapiens, DLD-1) [µM] | IC50 ([2]; Homo sapiens) [µM] | IC50 ([3]; Homo sapiens) [µM] | LDH release compared to vehicle control (in words) (HaCaT cells [4]) | inhibition of HaCaT cell proliferation (in words) (HaCaT cells [5]) | IC50 (HaCaT cells [5]; [7]) [µM] | also measured
1 | CC(=O)c1cc2c(o1)C(=O)c1ccccc1C2=O [Compound 6, 2-Acetyl-naphtho[2,3-b]furan4,9-dione] | 331 |  | 0.8 | ≤ 1 | ≤ 1 | significant LDH release as compared to vehicle | inhibited cell proliferation | 0.5 | 
2 | COc1ccc(C(=O)c2cc3cc4ccccc4cc3s2)cc1 [Compound 62a, (4-Methoxyphenyl)-naphtho[2,3-b]thiophen-2-yl-methanone] |  |  | > 32 | > 32 | > 32 |  |  | > 5 | 
3 | COc1ccc(C(=O)c2cc3c(s2)C(=O)c2ccccc2C3=O)cc1 [Compound 62b, 2-(4-Methoxybenzoyl)-naphtho[2,3-b]thiophene-4,9-dione] |  |  | 5.5 | 16 | 3 |  |  | > 5 | 
4 | O=C(c1ccc(O)cc1)c1cc2c(s1)C(=O)c1ccccc1C2=O [Compound 62c, 2-(4-Hydroxybenzoyl)-naphtho[2,3-b]thiophene-4,9-dione] | 123 |  | 5.3 | 12 | 2 |  |  | 2.7 | 
5 | CC(=O)c1cc2cc3ccccc3cc2s1 [Compound 63a, Naphtho[2,3-b]thiophen-2-yl-ethanone] |  |  |  |  |  | without significant elevation of LDH release over the vehicle control | inhibited cell proliferation at concentrations comparable to β-lapachone and the furan analogs |  | IC50 [1]: > 32 µM; IC50 [2]: > 32 µM; IC50 [3]: > 32 µM; IC50 (HaCaT cells [5]; [8]): 5 µM
6 | CC(=O)c1cc2c(s1)C(=O)c1ccccc1C2=O [Compound 63b, 2-Acetyl-naphtho[2,3-b]thiophene-4,9-dione] | 134 | 261 to 262 °C | 1 | 4 | ≤ 1 |  |  | 0.3 | 
7 | O=C(c1ccccc1)c1cc2cc3ccccc3cc2s1 [Compound 64a, Naphtho[2,3-b]thiophen-2-yl-phenylmethanone] | 122 | 164 to 165 °C | 1.5 | ≤ 1 | ≤ 1 |  |  | 0.3 | 
8 | O=C(c1ccccc1)c1cc2c(s1)C(=O)c1ccccc1C2=O [Compound 64b, 2-Benzoyl-naphtho[2,3-b]thiophene-4,9-dione] |  | 158 to 159 °C | 1.3 | 4 | ≤ 1 | without significant elevation of LDH release over the vehicle control | inhibited cell proliferation at concentrations comparable to β-lapachone and the furan analogs | 1.7 | 
9 | COc1ccc(C(=O)c2cc3cc4ccccc4cc3s2)cc1OC [Compound 65a, (3,4-Dimethoxyphenyl)-naphtho[2,3-b]thiophen-2-yl-methanone] |  | 175 to 176 °C | > 32 | > 32 | > 32 |  |  | > 5 | 
10 | COc1ccc(C(=O)c2cc3c(s2)C(=O)c2ccccc2C3=O)cc1OC [Compound 65b, 2-(3,4-Dimethoxybenzoyl)-naphtho[2,3-b]thiophene-4,9-dione] | 137 | 212 to 218 °C | 2.6 | 10 | ≤ 1 | without significant elevation of LDH release over the vehicle control | inhibited cell proliferation at concentrations comparable to β-lapachone and the furan analogs | 0.8 | 
11 | O=C(c1ccc(O)c(O)c1)c1cc2c(s1)C(=O)c1ccccc1C2=O [Compound 65c, 2-(3,4-Dihydroxybenzoyl)-naphtho[2,3-b]thiophene-4,9-dione] | 118 | 272 to 274 °C (dec.) | 11 | 20 | 8 | without significant elevation of LDH release over the vehicle control | inhibited cell proliferation at concentrations comparable to β-lapachone and the furan analogs | 1.5 | 
12 | CC(=O)c1cc2cc3ccccc3cc2o1 [Compound 73a, Naphtho[2,3-b]furan-2-yl-ethanone] |  |  |  |  |  |  |  |  | IC50 [1]: > 32 µM; IC50 [2]: > 32 µM; IC50 [3]: > 32 µM; IC50 (HaCaT cells [5]; [8]): > 5 µM
13 | COc1ccc(C(=O)c2cc3cc4ccccc4cc3o2)cc1OC [Compound 75a, (3,4-Dimethoxyphenyl)-naphtho[2,3-b]furan-2-yl-methanone] |  |  | 14 | 30 | 12 |  |  | > 5 | 
14 | COc1ccc(C(=O)c2cc3c(o2)C(=O)c2ccccc2C3=O)cc1OC [Compound 75b, 2-(3,4-Dimethoxybenzoyl)-naphtho[2,3-b]furan:4,9-dione] |  |  |  |  |  |  |  |  | IC50 [1]: 1.4 µM; IC50 (HaCaT cells [5]; [8]): 2.5 µM
15 | CC(=O)Oc1cccc2c1C(=O)c1ccsc1C2=O [Compound 81, 5-Acetoxy-naphtho[2,3-b]thiophene-4,9-dione] | 160 |  |  |  |  | without significant elevation of LDH release over the vehicle control | inhibited cell proliferation at concentrations comparable to β-lapachone and the furan analogs | 1.4 | 
16 | O=C1c2cccc(O)c2C(=O)c2ccsc21 [Compound 82, 5-Hydroxy-naphtho[2,3-b]thiophene-4,9-dione] | 117 |  |  |  |  | without significant elevation of LDH release over the vehicle control | inhibited cell proliferation at concentrations comparable to β-lapachone and the furan analogs | 1 | 
17 | O=C1c2c(O)cccc2Cc2cccc(O)c21 [anthralin, reference compound] | 294 |  |  |  |  | LDH release significantly higher than vehicle controls |  | 0.7 | 
18 | CC(C)=CCC1=C(O)C(=O)c2ccccc2C1=O [lapachol] |  |  |  |  |  |  |  |  | inhibition of keratinocyte growth in HaCaT model (in words) [6]: relatively inactive
19 | CC1(C)CCC2=C(O1)C(=O)c1ccccc1C2=O [α-lapachone, reference compound] |  |  |  |  |  |  |  |  | IC50 (HaCaT cells [5]; Homo sapiens, HaCaT, read-out: AA in HaCaT Cells IC50 (μM)): 10 µM; inhibition of keratinocyte growth in HaCaT model (in words) [6]: relatively inactive

The next lines start with results.

Row | LDH (mU) (HaCaT cells [4]) | melting point | SMILES | IC50 ([1]; Homo sapiens, DLD-1) [µM] | IC50 ([2]; Homo sapiens) [µM] | IC50 ([3]; Homo sapiens) [µM] | LDH release compared to vehicle control (in words) (HaCaT cells [4]) | inhibition of HaCaT cell proliferation (in words) (HaCaT cells [5]) | IC50 (HaCaT cells [5]; [7]) [µM] | also measured
20 |  | 251 to 252 °C | O=C(c1ccc([N+](=O)[O-])cc1)c1cc2cc3ccccc3cc2s1 [Compound 66a, Naphtho[2,3-b]thiophen-2-yl-(4-nitrophenyl)methanone] | > 32 | > 32 | > 32 |  |  | > 5 | 
21 |  | 270 °C | O=C(c1ccc([N+](=O)[O-])cc1)c1cc2c(s1)C(=O)c1ccccc1C2=O [Compound 66b, 2-(4-Nitrobenzoyl)-naphtho[2,3-b]thiophene-4,9-dione] | 25 |  |  |  |  | 4 | 
22 | 142 | 140 to 142 °C | O=C(c1ccccc1)c1cc2cc3ccccc3cc2o1 [Compound 74a, Naphtho[2,3-b]furan-2-yl-phenylmethanone] | 7.6 | 12 | ≤ 1 |  |  | 1.9 | 
23 | 222 | 198 to 200 °C | O=C(c1ccccc1)c1cc2c(o1)C(=O)c1ccccc1C2=O [Compound 74b, 2-Benzoyl-naphtho[2,3-b]furan-4,9-dione] |  |  |  |  |  | 0.7 | 
